Experimental data taken from PubChem BioAssay (NCI).
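Step 1: Grow cells in 96-well plates. Step 2: Expose to compound for 48 hours at 5 concentrations. Step 3: Interpolate endpoints linearly; if unreached, use highest concentration. The concentration for 50% growth inhibition is given as GI50. The concentration for full growth arrest is given as TGI.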

Key:
Assay in all cases: growth of human tumour cells (NCI), 48 h
[1] = system: NCI-H522 lung
[2] = system: NCI-H460 lung
[3] = system: EKVX NSCLC
[4] = system: HT29 colon
[5] = system: COLO 205 colon
[6] = system: HCT-15 colon
[7] = system: OVCAR-3 ovarian
[8] = system: CAKI-1 renal
[9] = system: TK-10 renal
[10] = system: MCF7 breast
[11] = system: CCRF-CEM leukemia
[12] = system: UACC-257 melanoma
[13] = system: NCI/ADR-RES ovarian
[14] = system: MDA-MB-435
[15] = system: MALME-3M melanoma
[16] = system: HL-60(TB) leukemia
[17] = system: A549 NSCLC
[18] = system: IGROV1 ovarian
[19] = system: LOX IMVI melanoma
[20] = system: HS 578T breast
[21] = system: SK-MEL-28 melanoma
[22] = system: HCT-116 colon
[23] = system: BT-549 breast
[24] = system: OVCAR-5 ovarian
[25] = system: HCC-2998 colon
[26] = system: DU-145 prostate
[27] = system: SF-295 CNS
[28] = system: SF-268 CNS
[29] = system: MOLT-4 leukemia
[30] = system: OVCAR-8 ovarian
[31] = system: A498 renal
[32] = system: HOP-62 NSCLC
[33] = system: 786-0 renal
[34] = system: UACC-62 melanoma
[35] = system: OVCAR-4 ovarian
[36] = system: K-562 leukemia
[37] = system: SW-620 colon
[38] = system: KM12 colon
[39] = system: PC-3 prostate
[40] = system: SN12C renal
[41] = system: M14 melanoma
[42] = system: ACHN renal
[43] = system: MDA-MB-231 breast
[44] = system: NCI-H23 lung
[45] = system: SF-539 CNS
[46] = system: UO-31 renal
[47] = system: SNB-19 CNS
[48] = system: SNB-75 CNS
[49] = system: SK-OV-3 ovarian
[50] = system: HOP-92 NSCLC
[51] = system: T-47D breast
[52] = system: NCI-H226 lung
[53] = system: SK-MEL-5 melanoma
[54] = system: SK-MEL-2 melanoma

## CN1CCN(c2ccc(Nc3nc(NCCCNS(=O)(=O)c4cccc5ccccc45)c4sccc4n3)cc2)CC1
[1]
  GI50: 1.81 µM
  TGI: 3.92 µM
[2]
  GI50: 3.44 µM
  TGI: 10.6 µM
[3]
  GI50: 7.21 µM
  TGI: 20.7 µM
[4]
  GI50: 2.41 µM
  TGI: 7.52 µM
[5]
  GI50: 2.12 µM
  TGI: 4.31 µM
[6]
  GI50: 1.78 µM
  TGI: 3.53 µM
[7]
  GI50: 3.32 µM
  TGI: 10.5 µM
[8]
  GI50: 3.85 µM
  TGI: 14.7 µM
[9]
  GI50: 4.54 µM
  TGI: 16.5 µM
[10]
  GI50: 2.2 µM
  TGI: 5.25 µM
[11]
  GI50: 3.35 µM
  TGI: > 100 µM
[12]
  GI50: 1.83 µM
  TGI: 3.54 µM
[13]
  GI50: 5.29 µM
  TGI: 19.8 µM
[14]
  GI50: 1.76 µM
  TGI: 3.21 µM
[15]
  GI50: 1.79 µM
  TGI: 3.19 µM
[16]
  GI50: 2.06 µM
  TGI: 4.74 µM
[17]
  GI50: 3.42 µM
  TGI: 19.9 µM
[18]
  GI50: 2.92 µM
  TGI: 10.2 µM
[19]
  GI50: 1.66 µM
  TGI: 3.05 µM
[20]
  GI50: 2.32 µM
  TGI: 7.61 µM
[21]
  GI50: 1.73 µM
  TGI: 3.22 µM
[22]
  GI50: 2.27 µM
  TGI: 6.14 µM
[23]
  GI50: 5.23 µM
  TGI: 21.4 µM
[24]
  GI50: 4.51 µM
  TGI: 16.5 µM
[25]
  GI50: 1.97 µM
  TGI: 4.37 µM
[26]
  GI50: 6.23 µM
  TGI: 20.5 µM
[27]
  GI50: 1.86 µM
  TGI: 3.81 µM
[28]
  GI50: 3.43 µM
  TGI: 20.8 µM
[29]
  GI50: 2.93 µM
  TGI: 11.9 µM
[30]
  GI50: 4.44 µM
  TGI: 23.5 µM
[31]
  GI50: 2.86 µM
  TGI: 9.4 µM
[32]
  GI50: 15.3 µM
  TGI: 32.4 µM
[33]
  GI50: 1.78 µM
  TGI: 3.44 µM
[34]
  GI50: 1.69 µM
  TGI: 3.13 µM
[35]
  GI50: 3.43 µM
  TGI: 13 µM
[36]
  GI50: 3.1 µM
  TGI: > 100 µM
[37]
  GI50: 2.02 µM
  TGI: 4.04 µM
[38]
  GI50: 4.67 µM
  TGI: 22.7 µM
[39]
  GI50: 5.69 µM
  TGI: > 100 µM
[40]
  GI50: 6.48 µM
  TGI: 19.7 µM
[41]
  GI50: 1.9 µM
  TGI: 3.48 µM
[42]
  GI50: 3.39 µM
  TGI: 10.6 µM
[43]
  GI50: 2.08 µM
  TGI: 4.06 µM
[44]
  GI50: 7.35 µM
  TGI: 22.3 µM
[45]
  GI50: 1.72 µM
  TGI: 3.11 µM
[46]
  GI50: 2.35 µM
  TGI: 7.81 µM
[47]
  GI50: 5.75 µM
  TGI: 18.3 µM
[48]
  GI50: 12.7 µM
  TGI: 25.4 µM
[49]
  GI50: 20.8 µM
  TGI: 39.5 µM
[50]
  GI50: 7.45 µM
  TGI: 27.7 µM
[51]
  GI50: 2.76 µM
  TGI: 9 µM
[52]
  GI50: 12.2 µM
  TGI: 34.4 µM
[53]
  GI50: 1.78 µM
  TGI: 3.19 µM
[54]
  GI50: 2.36 µM
  TGI: 5.79 µM
